Experiments:
[1] = tested on: a variety of test species; test: Pre-emergence herbicidal activity (Example 8a, Table 2); assay type: in vivo; set-up: key: 0 = no damage to plant, 5 = total damage to plant; conditions: application pre-emergence, rate 1000 g/ha, evaluated after 13 days
Protocol: Seeds of a variety of test species were sown in standard soil in pots. After cultivation for one day (pre-emergence) under controlled conditions in a glasshouse (at 24/16° C., day/night; 14 hours light; 65% humidity), the plants were sprayed with an aqueous spray solution derived from the formulation of the technical active ingredient in acetone/water (50:50) solution containing 0.5% Tween 20 (polyoxyethelyene sorbitan monolaurate, CAS RN 9005-64-5). The test plants were then grown in a glasshouse under controlled conditions (at 24/16° C., day/night; 14 hours light; 65% humidity) and watered twice daily. After 13 days, the test was evaluated (5=total damage to plant; 0=no damage to plant).

[2] = tested on: a variety of test species; test: Post-emergence herbicidal activity (Example 8b, Table 3); assay type: in vivo; conditions: application post-emergence, rate 1000 g/ha, evaluated after 13 days, scale 0-5; for Herbicidal damage score, ABUTH: Abutilon theophrasti; for Herbicidal damage score, ALOMY: Alopecurus myosuroides; for Herbicidal damage score, AMARE: Amaranthus retroflexus; for Herbicidal damage score, ECHCG: Echinochloa crus-galli; for Herbicidal damage score, SETFA: Setaria faberi; for Herbicidal damage score, ZEAMX: Zea mays
Protocol: Seeds of a variety of test species were sown in standard soil in pots. After 8 days cultivation (post-emergence) under controlled conditions in a glasshouse (at 24/16° C., day/night; 14 hours light; 65% humidity), the plants were sprayed with an aqueous spray solution derived from the formulation of the technical active ingredient in acetone/water (50:50) solution containing 0.5% Tween 20 (polyoxyethelyene sorbitan monolaurate, CAS RN 9005-64-5). The test plants were then grown in a glasshouse under controlled conditions (at 24/16° C., day/night; 14 hours light; 65% humidity) and watered twice daily. After 13 days, the test was evaluated (5=total damage to plant; 0=no damage to plant).

Row | SMILES | Pre-emergence herbicidal activity, damage score ABUTH [1] | Pre-emergence herbicidal activity, damage score ALOMY [1] | Pre-emergence herbicidal activity, damage score AMARE [1] | Pre-emergence herbicidal activity, damage score ECHCG [1] | Pre-emergence herbicidal activity, damage score SETFA [1] | Pre-emergence herbicidal activity, damage score ZEAMX [1] | Herbicidal damage score, ABUTH [2] | Herbicidal damage score, ALOMY [2] | Herbicidal damage score, AMARE [2] | Herbicidal damage score, ECHCG [2] | Herbicidal damage score, SETFA [2] | Herbicidal damage score, ZEAMX [2]
1 | CSc1c(C#N)c(N2C(=O)C(Cl)=C(C)C2O)nn1C (stereo not drawn) [Compound D5] | 0 | 0 | 0 | 0 | 0 | 0 | 0 | 0 | 0 | 0 | 0 | 0
2 | CC1=C(Cl)C(=O)N(c2cc3n(n2)CCC3C)C1O (mixture of isomers) [Compound G1] | 5 | 4 | 5 | 5 | 4 | 3 | 5 | 5 | 5 | 5 | 5 | 5
3 | CC1=C(Br)C(=O)N(c2cc(C(C)(C)C)[nH]n2)C1O (stereo not drawn) [Compound I1] | 5 | 4 | 5 | 5 | 4 | 3 | 5 | 4 | 5 | 5 | 5 | 5
4 | CCOC(C)(CC)c1cc(N2C(=O)C(Cl)=C(C)C2O)nn1C (stereo not drawn) [Compound B32] | 5 | 4 | 5 | 5 | 5 | 4 | 5 | 5 | 5 | 5 | 5 | 4
5 | CC1=C(Cl)C(=O)N(c2cc(Cl)n(C)n2)C1O (stereo not drawn) [Compound B18] | 4 | 3 | 5 | 4 | 5 | 2 | 5 | 5 | 5 | 5 | 5 | 5
6 | CC1=C(Cl)C(=O)N(c2nn(C)c(C(C)(C)C)c2Cl)C1O (stereo not drawn) [Compound D3] | 5 | 3 | 5 | 5 | 5 | 4 | 5 | 4 | 4 | 5 | 5 | 4
7 | CC1=C(Cl)C(=O)N(c2cc(C(C)(C)C)n(C)n2)C1OC(=O)OCC(C)C (stereo not drawn) [Compound F4] | 5 | 3 | 5 | 5 | 4 | 2 | 5 | 5 | 5 | 5 | 5 | 5
8 | CC1=C(Cl)C(=O)N(c2cc(/C=C/C(C)(C)C)n(C)n2)C1O (stereo not drawn) [Compound B17] | 2 | 2 | 4 | 4 | 3 | 2 | 5 | 3 | 5 | 5 | 5 | 1
9 | C/C=C/c1cc(N2C(=O)C(Cl)=C(C)C2O)nn1C (stereo not drawn) [Compound B21] | 2 | 3 | 4 | 4 | 3 | 0 | 4 | 2 | 4 | 4 | 5 | 0
10 | CC1=C(Cl)C(=O)N(c2cc(C)n(C(F)F)n2)C1O (stereo not drawn) [Compound C12] | 5 | 3 | 5 | 4 | 3 | 2 | 5 | 4 | 5 | 5 | 5 | 3
11 | COC1=C(OC)C(O)N(c2cc3n(n2)CCC3(C)C)C1=O (stereo not drawn) [Compound W1] | 5 | 4 | 5 | 4 | 5 | 3 | 5 | 5 | 5 | 5 | 5 | 5

Source: patent publication US9605004B2, “Chemical compounds” (SYNGENTA LIMITED, priority 2013, dated 2017)
